# In patent US20020137722A1, “Method for treating a patient with neoplasia by treatment with a paclitaxel derivative” (priority 1998, published 2002):
# pIC50: −log10 of the molar value.
# How the values were obtained:
# [1] = tested on: HT-29 cells; assay: HT-29 tumor cell growth inhibition, SRB assay; assay type: cell-based, human; design: Growth Inhibition: key to the marks not given beside the values; conditions: for Growth inhibitory activity % Inhibition at 100 μM: 100 μM single dose
# [2] = tested on: HT-29 colon adenocarcinoma cells; assay: Apoptosis by DNA fragmentation assay in HT-29 cells; assay type: cell-based, human
# [3] = tested on: cGMP-PDE; assay: cGMP-PDE inhibition assay, enzyme from HT-29 cultured tumor cells; assay type: biochemical, human; conditions: for cGMP PDE % Inhibition at 100 μM: 100 μM (test compounds)
# [4] = tested on: COX; assay: COX inhibition; assay type: biochemical
# [5] = tested on: PDE peak B (novel cGMP-PDE); assay: cGMP hydrolysis by PDE peak B isolated from SW-480 cells; assay type: biochemical, human
# [6] = tested on: premalignant lesions in mouse mammary gland organ culture; assay: Mammary gland organ culture model, DMBA-induced premalignant lesions; conditions: for inhibition of formation of premalignant lesions: mammary gland organ culture
# Experimental: For example, female BALB/c mice can be treated with a combination of estradiol and progesterone daily, in order to prime the glands to be responsive to hormones in vitro. The animals are sacrificed and thoracic mammary glands are excised aseptically and incubated for ten days in growth media supplemented with insulin, prolactin, hydrocortisone, and aldosterone. DMBA (7,12-dimethylbenz(a)anthracene) is added to medium to induce the formation of premalignant lesions. Fully developed lands are then deprived of prolactin, hydrocortisone, and aldosterone, resulting in the regression of the glands but not the pre malignant lesions.
# The test compound is dissolved in DMSO and added to the culture media for the duration of the culture period. At the end of the culture period, the glands are fixed in 10% formalin, stained with alum carmine, and mounted on glass slides. The extent of the area occupied by the mammary lesions can be quantitated by projecting an image of the gland onto a digitation pad. The area covered by the gland is traced on the pad and considered as 100% of the area. The space covered by each of the unregressed structures is also outlined on the digitization pad and quantitated by the computer.
# The incidence of forming mammary lesions is the ratio of the glands with mammary lesions to […]. The incidence of mammary lesions in test compound treated glands is compared with that of the untreated glands.
# Mammary gland organ culture experiments were performed as previously described (Mehta and Moon, Cancer Research, 46: 5832-5835, 1986). […] The data support the hypothesis that cyclooxygenase inhibition is not necessary for the anti-neoplastic properties of desired compounds.
# [7] = tested on: HT-29 cells; assay: Cyclic nucleotide (cGMP, cAMP) levels in HT-29 cells by radioimmunoassay; assay type: cell-based, human; conditions: HT-29 cells treated 30 minutes
# Experimental: The amount of PDE activity can be determined by assaying for the amount of cyclic GMP in the extract of treated cells using a radioimmunoassay (RIA). In this procedure, a neoplastic cell line is incubated with a test compound. […]
# It has been observed that a compound which is useful in the practice of this invention (i.e.. one that selectively induces apoptosis in neoplastic cells, but not substantially in normal cells) follows a time course consistent with cGMP-specific PDE inhibition. […] The intracellular targets of these drug actions are being studied further, but current data support the concert that the initial rise in cGMP content and the subsequent fall in cGMP content precede apoptosis in neoplastic cells exposed to test compounds useful in this invention. To determine the cyclic AMP content in cell extracts, radioimmunoassay techniques similar to those described above for cGMP are used.
# [8] = tested on: HT-29 cells; assay: Apoptosis and necrosis by morphology (acridine orange/ethidium bromide) in HT-29 cells; assay type: cell-based, human; conditions: 120 μM, time course
# Experimental: Growth inhibition (FIG. 9A, top) was measured by counting viable cells after trypan blue staining. Apoptosis (FIG. 9B, bottom) was measured by morphological determination following staining with acridine orange and ethidium bromide as described previously and Cohen, In: Current Protocols in Immunology, 3.17.1-3.17.16 New York, John Wiley and Sons, 1992). […] All data were collected from the same experiment.
# Following treatment with a test compound, cultures can be assayed for apoptosis and necrosis by fluorescent microscopy following labeling with acridine orange and ethidium bromide. […]
# Reference compounds and test compounds were analyzed for their cGMP-specific PDE inhibitory activity in accordance with the protocols for the assay, supra. […] Apoptotic and necrotic cell death was determined as previously described (Duke and Cohen, In: Current Protocols in Immunology, 3.17.1-3.17.16, New York. John Wiley and Sons, 1992). […]
# The apoptosis inducing activity for a series of phosphodiesterase inhibitors was determined. […] Apoptosis and necrosis were determined morphologically after acridine orange and ethidium bromide labeling in accordance with the assay described supra.
# [9] = target: T1, PDE peak A (PDE5) (Homo sapiens, UniProt O76074); assay: cGMP hydrolysis by PDE peak A isolated from SW-480 cells; assay type: biochemical
# T1 construct: SW-480 cells are collected and homogenized; The homogenate is centrifuged, and the supernatant is loaded onto a DEAE-Trisacryl M column; endogenous in cells; host or cells: SW-480 human colon adenocarcinoma cells (DEAE-Trisacryl M fraction, peak A)
# [10] = reversible; cited from earlier work
compound,measurement,setting,value
"CCN(CC)CCSC12CC(=O)OC1(C)/C(=C/c1ccc(S(C)(=O)=O)cc1)c1ccc(F)cc12 (racemic) [A, rac-threo-(E)-1-(N,N′-diethylaminoethanethio)-1-(butan-1′,4′-olido)-[3′,4′:1,2]-6-fluoro-2-methyl-3-(p-methylsulfonylbenzylidene)-indan]",Growth inhibitory activity % Inhibition at 100 μM,[1],68%
same,"Apoptosis inducing activity, Fold induction at 100 μM",[2]; 100 μM,<2.0 fold
same,cGMP PDE % Inhibition at 100 μM,[3],<25%
same,COX Inhibition,[4]; activity profile,−
"COc1cc(/C=C2/C(C)=C(CC(=O)NCc3ccccc3)c3cc(F)ccc32)cc(OC)c1OC [Compound E, (Z)-5-Fluoro-2-methyl-1-(3,4,5-trimethoxybenzylidene)-3-indenylacetamide, N-benzyl]",apoptosis induction in neoplastic cells,[2],induce apoptosis in neoplastic cells
CC1(C)C(=O)Nc2ccc(C3=NNC(=O)CC3)cc21 [Indolidan],sensitivity of the new cGMP-PDE (peak B) to inhibition,[5],relatively insensitive
"CC(=O)N[C@@H](CSC12CC(=O)OC1(C)/C(=C/c1ccc(S(C)(=O)=O)cc1)c1ccc(F)cc12)C(=O)O (mixture of isomers) [D, rac-(E)-1-(butan-1′,4′-olide)-[3′,4′:1,2]-6-fluoro-2-methyl-3-(p-methylsulfonylbenzylidene)-1S-indanyl-N-acetylcysteine]",Growth inhibitory activity % Inhibition at 100 μM,[1],78%
same,Growth Inhibition,[1]; activity profile,++
same,Apoptosis,[2]; activity profile,−
same,PDE Inhibition,[3]; activity profile,−
same,Mammary Gland Organ Culture,[6]; activity profile,−
same,COX Inhibition,[4]; activity profile,−
CCCOc1ccccc1-c1nc2nn[nH]c2c(=O)[nH]1 [Zaprinast],sensitivity of the new cGMP-PDE (peak B) to inhibition,[5],relatively insensitive
same,growth inhibition of neoplastic cells,[1],do not have significant apoptosis-inducing (Table 6) or growth-inhibiting
same,apoptosis induction in neoplastic cells,[2],do not have significant apoptosis-inducing
CC1=C(CC(=O)O)c2cc(F)ccc2/C1=C/c1ccc([S+](C)[O-])cc1 (centres unmarked) [sulindac sulfoxide],inhibition of formation of premalignant lesions,[6],effectively inhibit the formation of premalignant lesions
CSc1ccc(/C=C2/C(C)=C(CC(=O)O)c3cc(F)ccc32)cc1 [Sulindac sulfide],increase in levels of cGMP,[7],greater than 50%
same,pIC50,"[7]; Homo sapiens, 0.5 h, read-out: IC50 value for increase of cGMP levels",5.14
same,apoptosis induction in neoplastic cells,[2],induce apoptosis in neoplastic cells
same,"apoptosis, morphological determination",[8],an increase in apoptosis
same,inhibition of formation of premalignant lesions,[6],inactive
CCOC(=O)C1=C[C@]2(CC)CCCN3CCc4c(n1c1ccccc41)[C@@H]32 [Vinpocetine],sensitivity of the new cGMP-PDE (peak B) to inhibition,[5],relatively insensitive
"COc1cc(C=C2C(C)=C(CC(=O)O)c3cc(F)ccc32)cc(OC)c1OC [Compound B, (Z)-5-Fluoro-2-methyl-1-(3,4,5-trimethoxybenzylidene)-3-acetic acid]",cGMP PDE % Inhibition at 100 μM,[3],<25%
same,COX Inhibition,[4]; 100 μM,did not inhibit COX
same,COX Inhibition,[4]; activity profile,−
O=C([O-])C1CCN(c2nc(NCc3ccc4c(c3)OCO4)c3cc(Cl)ccc3n2)CC1.[Na+] [Compound E4021],sensitivity of the new cGMP-PDE (peak B) to inhibition,[5],relatively insensitive
same,growth inhibition of neoplastic cells,[1],do not have significant apoptosis-inducing (Table 6) or growth-inhibiting
same,Growth inhibitory activity % Inhibition at 100 μM,[1],<50%
same,apoptosis induction in neoplastic cells,[2],do not have significant apoptosis-inducing
"CC1=C(CC(=O)O)c2cc(F)ccc2/C1=C\c1ccc(Cl)cc1 [C, (Z)-5-Fluoro-2-methyl-1-(p-chlorobenzylidene)-3-acetic acid]",Growth inhibitory activity % Inhibition at 100 μM,[1],80%
"CC1=C(CC(=O)O)c2cc(F)ccc2/C1=C\c1ccc(S(C)(=O)=O)cc1 [Exisulind, (Z)-5-fluoro-2-methyl-1-[[4-(methylsulfonyl)phenyl]methylene]indene-3-yl acetic acid]",sensitivity of the new cGMP-PDE (peak B) to inhibition,[5],inhibits both PDES and the new cGMP-PDE
same,inhibition of peak A / PDE5 activity,[9],inhibits both PDES and the new cGMP-PDE
same,side effects at doses higher than the recommended therapeutic levels,[10],elevated levels of liver enzymes
same,inhibition of formation of premalignant lesions,[6],effectively inhibit the formation of premalignant lesions
COc1ccc(C2CNC(=O)C2)cc1OC1CCCC1 (centres unmarked) [Rolipram],sensitivity of the new cGMP-PDE (peak B) to inhibition,[5],relatively insensitive
CCCc1nn(C)c2c(=O)[nH]c(-c3cc(S(=O)(=O)N4CCN(C)CC4)ccc3OCC)nc12 [Sildenafil],inhibition of peak A / PDE5 activity,[9],inhibited activity of peak A
same,growth inhibition of neoplastic cells,[1],do not have significant apoptosis-inducing (Table 6) or growth-inhibiting
same,apoptosis induction in neoplastic cells,[2],do not have significant apoptosis-inducing
